Data on seven molecules can be found in US20050282755A1, “Compositions having antimicrobial activity and uses thereof” (priority 2004, published 2005).

What all share (assay type): cell-based
For one assay, the system named is Salmonella dublin (Lane). Description: MIC, NCCLS M7-A6 broth microdilution (Table 9, no superscript). An outline of the steps: (§1)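 MIC determined by microdilution in cation-adjusted Mueller Hinton broth after overnight growth at 37° C, defined as the lowest peptide level lacking turbidity.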
Background: Broth dilution looks for growth in wells or tubes with falling amounts of substance.

Assay [1] concerns Staphylococcus epidermidis ATCC 12228. Described as above. As to conditions: ATCC 12228. An outline of the steps: as §1
Assay [2] concerns Escherichia coli ATCC 25922. The assay is described as above. The note with it: ATCC 25922. Put shortly:
as §1

Assay [3] relates to Pseudomonas aeruginosa ATCC 27853. Described as above. The note with it: ATCC 27853. Put shortly:
as §1

In assay [4] the test system is Staphylococcus aureus ATCC 29213. Nature of the assay: MIC, NCCLS M7-A6 broth microdilution, cation-adjusted Mueller Hinton broth (Table 9, no superscript). As to conditions: ATCC 29213. Put shortly:
as §1

≈ marks a conversion by molar mass, not a printed value. Non-standard residues stand in square brackets, D forms with d. Residues, ends and D or L forms follow the SMILES beside them. *: point of attachment. 1Nal = N[C@@H](Cc1cccc2ccccc12)C(=O)O; Stearoyl = CCCCCCCCCCCCCCCCCC(=O)*; Lauroyl = CCCCCCCCCCCC(=O)*

Consider `CCCCCCCCCCCC(=O)N[C@H](C(=O)N[C@@H](CCCNC(=N)N)C(=O)N[C@H](C(=O)N[C@@H](CO)C(=O)N[C@@H](CCCNC(=N)N)C(=O)N[C@H](C(=O)NCC(=O)N[C@@H](CCCNC(=N)N)C(=O)N[C@@H](CO)C(=O)N[C@@H](CCCNC(=N)N)C(=O)N[C@@H](Cc1c[nH]c2ccccc12)C(=O)N[C@@H](CCCNC(=N)N)C(=O)N[C@@H](CC(=O)O)C(=O)N[C@@H](Cc1c[nH]c2ccccc12)C(=O)N[C@@H](CO)C(=O)N[C@@H](CCCNC(=N)N)C(=O)N[C@@H](CC(N)=O)C(=O)N[C@@H](Cc1ccccc1)C(=O)N[C@@H](CCSC)C(=O)N[C@@H](CCCNC(=N)N)C(=O)N[C@@H](CC(C)C)C(=O)N[C@@H](CC(C)C)C(N)=O)[C@@H](C)O)C(C)C)[C@@H](C)O` [Peptide 68] (Lauroyl-TRVSRTGRSRWRDWSRNFMRLL-NH2), for which, in the assay on Salmonella dublin (Lane), the “MIC S. dublin” value is 16 µg/mL (≈ 5.3 µM). Also, the “MIC S. epidermidis” value in assay [1] amounted to 8 µg/mL (≈ 2.65 µM). For the same molecule, the “MIC E. coli” value in assay [2] stood at 64 µg/mL (≈ 21.2 µM). Moreover, the “MIC P. aeruginosa” value in assay [3] was more than 64 µg/mL. Also, the “MIC S. aureus” value in assay [4] is 32 µg/mL (≈ 10.6 µM).

Turning to `CCCCCCCCCCCCCCCCCC(=O)N[C@@H](C(=O)N[C@H](CCCNC(=N)N)C(=O)N[C@@H](C(=O)N[C@H](CO)C(=O)N[C@H](CCCNC(=N)N)C(=O)N[C@@H](C(=O)NCC(=O)N[C@H](CCCNC(=N)N)C(=O)N[C@H](CO)C(=O)N[C@H](CCCNC(=N)N)C(=O)N[C@H](Cc1c[nH]c2ccccc12)C(=O)N[C@H](CCCNC(=N)N)C(=O)N[C@H](CC(=O)O)C(=O)N[C@H](Cc1c[nH]c2ccccc12)C(=O)N[C@H](CO)C(=O)N[C@H](CCCNC(=N)N)C(=O)N[C@H](CC(N)=O)C(=O)N[C@H](Cc1ccccc1)C(=O)N[C@H](CCSC)C(=O)N[C@H](CCCNC(=N)N)C(=O)N[C@H](C)C(=O)N[C@H](C)C(=O)N[C@@H](CCCCN)C(N)=O)[C@H](C)O)C(C)C)[C@H](C)O` [Peptide 81, Stearyl-trvsrtgrsrwrdwsrnfmraaK-NH2] (Stearoyl-[dT][dR][dV][dS][dR][dT]G[dR][dS][dR][dW][dR][dD][dW][dS][dR][dN][dF][dM][dR][dA][dA]K-NH2), the “MIC S. dublin” value in the assay with Salmonella dublin (Lane) amounted to 32 µg/mL (≈ 10.2 µM). Further, the “MIC S. epidermidis” value in assay [1] is 64 µg/mL (≈ 20.3 µM). Further, in assay [2], the “MIC E. coli” value worked out at 64 µg/mL (≈ 20.3 µM). Moreover, in assay [3], the “MIC P. aeruginosa” value is more than 64 µg/mL. Further, in assay [4], the “MIC S. aureus” value stood at 64 µg/mL (≈ 20.3 µM).

For the molecule `CSCC[C@@H](NC(=O)[C@@H](Cc1ccccc1)NC(=O)[C@@H](CC(N)=O)NC(=O)[C@@H](CCCNC(=N)N)NC(=O)[C@@H](CO)NC(=O)[C@@H](Cc1c[nH]c2ccccc12)NC(=O)[C@@H](CC(=O)O)NC(=O)[C@@H](CCCNC(=N)N)NC(=O)[C@@H](Cc1c[nH]c2ccccc12)NC(=O)[C@@H](CCCNC(=N)N)NC(=O)[C@@H](CO)NC(=O)[C@@H](CCCNC(=N)N)NC(=O)CNC(=O)[C@H](NC(=O)[C@@H](CCCNC(=N)N)NC(=O)[C@@H](CO)NC(=O)[C@H](NC(=O)[C@@H](CCCNC(=N)N)NC(=O)[C@H](NC(C)=O)[C@H](C)O)C(C)C)[C@H](C)O)C(=O)N[C@H](CCCNC(=N)N)C(=O)N[C@H](C)C(=O)N[C@H](C)C(=O)N[C@@H](CCCCNC(C)=O)C(N)=O` [Peptide 84, Ac-trvsrtgrsrwrdwsrnfmraaK(Ac)-NH2] (Ac-[dT][dR][dV][dS][dR][dT]G[dR][dS][dR][dW][dR][dD][dW][dS][dR][dN][dF][dM][dR][dA][dA]K(Ac)-NH2), the “MIC S. epidermidis” value in assay [1] came out at 32 µg/mL (≈ 10.8 µM). The “MIC E. coli” value in assay [2] is more than 64 µg/mL. Further, in assay [3], the “MIC P. aeruginosa” value is more than 64 µg/mL.

Take `CCCCCCCCCCCCCCCCCC(=O)N[C@@H](C(=O)N[C@H](CCCNC(=N)N)C(=O)N[C@@H](C(=O)N[C@H](CO)C(=O)N[C@H](CCCNC(=N)N)C(=O)N[C@@H](C(=O)NCC(=O)N[C@H](CCCNC(=N)N)C(=O)N[C@H](CO)C(=O)N[C@H](CCCNC(=N)N)C(=O)N[C@H](Cc1c[nH]c2ccccc12)C(=O)N[C@H](CCCNC(=N)N)C(=O)N[C@H](CC(=O)O)C(=O)N[C@H](Cc1c[nH]c2ccccc12)C(=O)N[C@H](CO)C(=O)N[C@H](CCCNC(=N)N)C(=O)N[C@H](CC(N)=O)C(=O)N[C@H](Cc1ccccc1)C(=O)N[C@H](CCSC)C(=O)N[C@H](CCCNC(=N)N)C(=O)N[C@H](C)C(=O)N[C@H](C)C(=O)N[C@@H](CCCCNC(C)=O)C(N)=O)[C@H](C)O)C(C)C)[C@H](C)O` [Peptide 86, Stearyl-trvsrtgrsrwrdwsrnfmraaK(Ac)-NH2] (Stearoyl-[dT][dR][dV][dS][dR][dT]G[dR][dS][dR][dW][dR][dD][dW][dS][dR][dN][dF][dM][dR][dA][dA]K(Ac)-NH2): the “MIC S. epidermidis” value in assay [1] amounted to 32 µg/mL (≈ 10 µM). Moreover, the “MIC E. coli” value in assay [2] is more than 64 µg/mL. Further, in assay [3], the “MIC P. aeruginosa” value was more than 64 µg/mL.

Regarding `CSCC[C@H](NC(=O)[C@H](Cc1ccccc1)NC(=O)[C@H](CC(N)=O)NC(=O)[C@H](CCCNC(=N)N)NC(=O)[C@H](C)NC(=O)[C@H](Cc1c[nH]c2ccccc12)NC(=O)[C@H](CC(=O)O)NC(=O)[C@H](CCCNC(=N)N)NC(=O)[C@H](Cc1c[nH]c2ccccc12)NC(=O)[C@H](CCCNC(=N)N)NC(=O)[C@H](CO)NC(=O)[C@H](CCCNC(=N)N)NC(C)=O)C(=O)N[C@@H](CCCNC(=N)N)C(N)=O` [Peptide 94, Ac-RSRWRDWARNFMR-NH2] (Ac-RSRWRDWARNFMR-NH2), the “MIC S. dublin” value in the assay on Salmonella dublin (Lane) is more than 64 µg/mL. Further, the “MIC S. epidermidis” value in assay [1] came to 16 µg/mL (≈ 8.52 µM). Also, the “MIC E. coli” value in assay [2] is more than 64 µg/mL. Besides, the “MIC P. aeruginosa” value in assay [3] was more than 64 µg/mL. In addition, the “MIC S. aureus” value in assay [4] was more than 64 µg/mL.

Regarding `CCCCCCCCCCCC(=O)N[C@@H](CCCNC(=N)N)C(=O)N[C@@H](CO)C(=O)N[C@@H](CCCNC(=N)N)C(=O)N[C@@H](Cc1c[nH]c2ccccc12)C(=O)N[C@@H](CCCNC(=N)N)C(=O)N[C@@H](CC(=O)O)C(=O)N[C@H](C(=O)N[C@@H](Cc1cccc2ccccc12)C(=O)N[C@@H](CCCNC(=N)N)C(=O)N[C@@H](CC(N)=O)C(=O)N[C@@H](Cc1ccccc1)C(=O)N[C@@H](CCSC)C(=O)N[C@@H](CCCNC(=N)N)C(N)=O)C(C)C` [Peptide 151, Lauryl-RSRWRDVZRNFMR-NH2 Z = 1-naphthylalanine] (Lauroyl-RSRWRDV[1Nal]RNFMR-NH2), in the assay with Salmonella dublin (Lane), the “MIC S. dublin” value worked out at 8 µg/mL (≈ 3.89 µM). In assay [1], the “MIC S. epidermidis” value was 4 µg/mL (≈ 1.94 µM). Moreover, the “MIC E. coli” value in assay [2] stood at 64 µg/mL (≈ 31.1 µM). Besides, in assay [3], the “MIC P. aeruginosa” value is more than 64 µg/mL. Also, the “MIC S. aureus” value in assay [4] came out at 32 µg/mL (≈ 15.6 µM).

Consider `CCCCCCCCCCCC(=O)N[C@H](CCCNC(=N)N)C(=O)N[C@H](CC(C)C)C(=O)N[C@H](CCCNC(=N)N)C(=O)N[C@H](Cc1c[nH]c2ccccc12)C(=O)N[C@H](CCCNC(=N)N)C(=O)N[C@H](CC(C)C)C(=O)N[C@@H](C(=O)N[C@H](CC(C)C)C(=O)N[C@H](CCCNC(=N)N)C(=O)N[C@H](CC(C)C)C(=O)N[C@H](Cc1ccccc1)C(=O)N[C@H](CC(C)C)C(=O)N[C@H](CCCNC(=N)N)C(N)=O)C(C)C` [Peptide 218, Lauryl-rlrwrlvlrlflr-NH2] (Lauroyl-[dR][dL][dR][dW][dR][dL][dV][dL][dR][dL][dF][dL][dR]-NH2), for which, in the assay on Salmonella dublin (Lane), the “MIC S. dublin” value was more than 64 µg/mL. In addition, the “MIC S. aureus” value in assay [4] is more than 64 µg/mL.
